# Results from patent US11180486B2, “Indolylkojyl methane analogues, process of preparation thereof and use as inhibitor of cancer cells invasion and metastasis” (Council of Scientific & Industrial Research, priority 2017, dated 2021).
# “And” between values parts separate entries of the source, which are not always exact repeats. Equal entries are not always repeated.
# How the values were obtained:
# GRP78 = assay: Immunoblotting, expression of GRP78; format: cell-based, human; conditions: for expression of intracellular GRP78 (time dependent study): 200 nM
# Protocol: (§1) Immunoblotting. MDA-MB-231 and MCF7 cells (0.5×10^6) were plated in six well plates for overnight in a humidified CO2 incubator and then exposed to varying concentrations of 5 (50, 100 and 200 nM) for 24 h along with vehicle (dose dependent study) and 200 nM of 5 for various time points like; 0, 6, 12, 24 and 48 h (time dependent study). Cells were then harvested, washed with chilled PBS and lysed with lysis buffer (HEPES 1 mM, KCl 60 mM, NP-40 0.3%, EDTA 1 mM, DTT 1 mM, sodium orthovanadate 1 mM, PMSF 0.1 mM and cocktail protease inhibitor). The cell extractions were centrifuged at 12,000 rpm for 10 min at 4° C. Protein concentration was measured by the standard Bradford method. An equal amount (20 μg) of protein from each sample was subjected to SDS-PAGE, and proteins were transferred to PVDF membranes (PALL), blocked with 5% (w/v) non-fat milk in PBS containing 0.1% Tween-20, probed with relevant antibodies (1:1000 dilution) for 3 h at room temperature or overnight at 4° C., and subsequently washed and probed with species-specific secondary antibodies coupled to horseradish peroxidase. Immunoreactive proteins were detected by Enhanced Chemiluminescence Plus (Thermo) (Rah et al., 2012, PloS one, 7(9), p.e44039.).
# (§2) Drug Potentiation Assay. Briefly, MDA-MB-231 cells were exposed to 200 nM of compound 5, 200 nM of doxorubicin alone and/or combination of both (1:1 ratio) for 48 h in cell viability (MTT) assay, for 5 days in a colony formation assay and subjected to western blotting for the expression of GRP78 and Par-4. The ability of 5 to enhance cell killing was expressed as potentiation index (PI), which was the ratio of the […]. Thus, PI>1 indicates potentiation and PI<1 indicates protection.
# MDA-MB-231 cells = assay: Drug potentiation, colony formation assay; format: cell-based, human
# Protocol: Colony Formation Assay. The experiment was performed according to the pre-standardized protocol (Amin et al., 2015, Mol. Carcinog). Accordingly, MDA-MB-231 cells were seeded in 6 well plates at a density of 1×10^3 cells/ well and incubated for 5 days by giving treatment with vehicle, compound 5, doxorubicin alone and/or combination of compound 5 plus doxorubicin (1:1 ratio). Cells were subsequently washed, fixed with methanol and stained with 0.2% crystal violet for 1 h. Cells were counted from atleast 3 random fields for the colony number under an inverted microscope and photographed at 20× magnifications.
# as §2
# [1] = tested on: mouse mammary carcinoma (4T1) cells; format: in vivo
# Protocol: In Vivo Anti-Tumor and Anti-Metastatic Efficacy Studies. To evaluate the antitumor and antimetastatic effect of 5 in vivo, healthy female Balb/c mice (b.w. 18-23 g) were taken. The experimental protocols were approved by the Institutional Animal Ethics Committee, CPCSEA, of Indian Institute of Integrative Medicine, Jammu. The animals were maintained at 22° C. with a 12 h light-dark cycle and free access to feed and water inside the institutional animal house. Proper care was taken to maintain them in a healthy condition and to avoid any risk of possible pathogenic contaminations. For subcutaneous implantation, the mice were randomized into two groups of 5 mice per group and 1.5 million mouse mammary carcinoma (4T1) cells in serum free RPMI media were injected subcutaneously into the mammary fat pad of each mouse. Either 1 week after the tumor cell implantation or when the tumor volume reached ˜150 mm^3, mice were injected intraperitoneally with either normal saline (NS) or parent compound 1 (100 mg/kg, b.w.) or 5 (30 mg/kg, b.w.) in each alternate days for two weeks. Tumor size was recorded on each alternate days post-cell injection and body weights were recorded once per week. Mice were sacrificed on the 15th day of treatment initiation and tumors were incised for its measurement. Metastatic lung nodules were counted using a dissecting microscope. Lungs were then minced into fine pieces, suspended in medium containing collagenase and kept in 37° C. incubator with vigorous shaking for 2 h. The suspension was then filtered with the help of 70 μm cell strainer (BD, USA) to get the single cell suspension. Then, the suspension was serially diluted for 3-4 times in selection medium containing 6-thioguanine, for the selection of 4T1 cells. Each dilution containing the lung cell suspension was then plated into individual petridishes and incubated at 37° C. and 5% CO2 for the growing of 4T1 cell colonies. After 15 days of incubation, cells were washed with PBS, fixed with methanol and stained with 0.2% crystal violet solution for 1 h. Images of the 4T1 colonies were observed, counted and photographed under an inverted microscope at 20× magnification.
# E-cadherin = assay: Immunoblotting, expression of E-cadherin; format: cell-based, human; conditions: MDA-MB-231 cells; dose dependent
# Protocol: as §1
# TIMP-1 = assay: Immunoblotting, expression of TIMP-1; format: cell-based, human; conditions: MDA-MB-231 cells; dose dependent
# Protocol: as §1
smiles,measurement,setting,value
"CCCCCCCC(c1oc(CO)cc(=O)c1O)c1c[nH]c2ccccc12 (centres unmarked) [Compound 5, 2-{1-(1H-indol-3-yl)octyl}-3-hydroxy-6-(hydroxymethyl)-4H-pyran-4-one]",expression of intracellular GRP78 (time dependent study),GRP78; 24 h time point,consistent decrease
same,expression of intracellular GRP78 (time dependent study),GRP78; 48 h time period,almost vanished
same,expression of GRP78 (dose dependent study),"GRP78; 100 and 200 nM, 24 h, MDA-MB-231 and MCF7 vs vehicle",steady downregulation
same,decrease in the expression of GRP78,"GRP78; MDA-MB-231, 5 and doxorubicin in combination, 24 h, vs each alone, densitometry",5.1 fold
same,potentiation index (PI),"MDA-MB-231 cells; 200 nM 5 plus 200 nM doxorubicin (1:1), 5 days, colony formation",5.2
same,potentiation of the effect of doxorubicin,"MDA-MB-231 cells; summary statement, combination with doxorubicin in breast cancer cells",≤ 6 fold
same,decrease in metastatic lung nodules,"[1]; 30 mg/kg b.w. i.p., alternate days for two weeks",84.5%
same,inhibition in tumor growth,"[1]; 30 mg/kg b.w. i.p., alternate days for two weeks, vs normal saline",79.2% and 67%
same,colony formation by 4T1 cells in lung suspension,"[1]; 30 mg/kg b.w., compared to 1 and vehicle treated animals",inhibited drastically
same,expression of E-cadherin,E-cadherin,induced significantly
same,expression of TIMP-1,TIMP-1,induced significantly
